The structures appear in SMILES notation. Some results are limits rather than exact numbers.

`Cc1ccc(S(=O)(=O)c2c(N)c3nccn3c3nccnc23)cc1` [Example 1, 5-[(4-Methylphenyl)sulfonyl]-imidazo[1′,2′:1,6]pyrido[2,3-b]pyrazin-6-amine]: the melting point was 294 to 295 °C.

The compound `Cc1ccc(S(=O)(=O)c2c(N)c3nncn3c3nccnc23)cc1` [Example 2, 5-[(4-methylphenyl)sulfonyl]-[1,2,4]triazolo[4′,3′:1,6]pyrido[2,3-b]pyrazin-6-amine] registered a melting point of more than 300 °C. As for `CCc1ccc(S(=O)(=O)c2c(N)c3nccn3c3nccnc23)cc1` [Example 3, 5-[(4-ethylphenyl)sulfonyl]-imidazo[1′,2′:1,6]pyrido[2,3-b]pyrazin-6-amine], the melting point is 267.5 to 268.5 °C. With `CC(C)c1ccc(S(=O)(=O)c2c(N)c3nccn3c3nccnc23)cc1` [Example 4, 5-[(4-isopropylphenyl)sulfonyl]-imidazo[1′,2′:1,6]pyrido[2,3-b]pyrazin-6-amine] the figure was 241 to 244 °C. Compound `CCCc1ccc(S(=O)(=O)c2c(N)c3nccn3c3nccnc23)cc1` [Example 5, 5-[(4-propylphenyl)sulfonyl]-imidazo[1′,2′:1,6]pyrido[2,3-b]pyrazin-6-amine] displayed a melting point of 231 to 232 °C. In turn, `COc1ccc(S(=O)(=O)c2c(N)c3nccn3c3nccnc23)cc1` [Example 6, 5-[(4-methoxyphenyl)sulfonyl]-imidazo[1′,2′:1,6]pyrido[2,3-b]pyrazin-6-amine] displayed a melting point of 269 to 270 °C. The same measure for `Nc1c(S(=O)(=O)c2ccc(O)cc2)c2nccnc2n2ccnc12` [Example 8, 5-[(4-Hydroxyphenyl)sulfonyl]-imidazo[1′,2′:1,6]pyrido[2,3-b]pyrazin-6-amine]: more than 300 °C.

The melting point is the temperature of the solid-liquid transition.

For the origin of these results see patent US6555538B2, “5-arylsulfonyl-imidazo[1′,2′:1,6]pyrido[2,3-b]pyrazine-6-amines and related compounds” (Pfizer Inc, priority 1999, dated 2003).
